What was measured:
DNA [1] = assay: Binding affinity to calf thymus DNA at 20 uM after 72 hrs by thermal denaturation assay; type: nucleic-acid assay; details: Bos taurus
DNA [2] = assay: Binding affinity to calf thymus DNA at 20 uM after 4 hrs by thermal denaturation assay; type: nucleic-acid assay; details: Bos taurus
DNA [3] = assay: Binding affinity to calf thymus DNA at 20 uM after 18 hrs by thermal denaturation assay; type: nucleic-acid assay; details: Bos taurus
A498 = assay: Growth inhibition of human A498 cells after 48 hrs by sulforhodamine B assay relative to control; type: functional; details: A498, 48 h
NCI-H460 = assay: Cytotoxicity against human NCI-H460 cells assessed as cell growth at 50 uM after 48 hrs by Alamar Blue assay relative to control; type: functional; details: NCI-H460, 48 h, read-out: Activity
MCF7 = assay: Cytotoxicity against human MCF7 cells assessed as cell growth at 50 uM after 48 hrs by Alamar Blue assay relative to control; type: functional; details: MCF7, 48 h, read-out: Activity
SF-268 = assay: Cytotoxicity against human SF268 cells assessed as cell growth at 50 uM after 48 hrs by Alamar Blue assay relative to control; type: functional; details: SF-268, 48 h, read-out: Activity
NCI = assay: Growth inhibition of human NCI 60 cells after 48 hrs by sulforhodamine B assay relative to control; type: functional

Row | ΔTm (DNA [1]) [°C] | ΔTm (DNA [2]) [°C] | ΔTm (DNA [3]) [°C] | Compound | GI50 (A498) [µM] | growth at 50 µM (NCI-H460) [%] | growth at 50 µM (MCF7) [%] | growth at 50 µM (SF-268) [%] | GI50 (NCI) [µM]
1 | 1 | 0.9 | 1 | O=C1Nc2ccccc2C(=O)N2C=C(c3cccc([N+](=O)[O-])c3)C[C@@H]12 |  |  |  |  | 
2 | 1.6 | 1.5 | 1.5 | O=C1Nc2ccccc2C(=O)N2C=C(c3ccccc3)C[C@@H]12 |  |  |  |  | 
3 | 2.4 | 2.3 | 2.3 | O=C1Nc2ccccc2C(=O)N2C=C(c3cccc4ccccc34)C[C@@H]12 | 3.16 | 29 | 42 | 73 | 14.8
4 | 2.1 | 2 | 2 | O=C1Nc2ccccc2C(=O)N2C=C(c3ccc(Br)cc3)C[C@@H]12 | 0.51 | 20 | 61 | 109 | 7.41
5 |  |  |  | Cc1ccc2c(c1O)NC(O)C1CC(/C=C/C(N)=O)=CN1C2=O (stereo not drawn) [ANTHRAMYCIN] | 0.195 |  |  |  | 0.029
6 | 1.1 | 1.1 | 1.1 | Nc1ccc(C2=CN3C(=O)c4ccccc4NC(=O)[C@@H]3C2)cc1 |  |  |  |  | 
7 | 2.2 | 2.1 | 2.2 | O=C1Nc2ccccc2C(=O)N2C=C(c3ccc(Cl)c(Cl)c3)C[C@@H]12 | > 50 | 5 | 51 | 86 | 46.8
8 | 1.5 | 1.5 | 1.4 | O=Cc1ccc(C2=CN3C(=O)c4ccccc4NC(=O)[C@@H]3C2)cc1 |  |  |  |  | 

Reference: ChEMBL document CHEMBL1147843, “Synthesis of a novel C2-aryl pyrrolo[2,1-c][1,4]benzodiazepine-5,11-dione library: effect of C2-aryl substitution on cytotoxicity and non-covalent DNA binding” (2007)
